Data from PubChem BioAssay (NCI).
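GI50 is the concentration that inhibits growth by half. TGI is the concentration that stops growth completely.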

Tests used:
Experiment in all cases: growth of human tumour cells (NCI), 384-well format
[1] = test system: HCC-2998 colon
[2] = test system: SNB-19 CNS
[3] = test system: PC-3 prostate
[4] = test system: A498 renal
[5] = test system: COLO 205 colon
[6] = test system: HT29 colon
[7] = test system: UACC-257 melanoma
[8] = test system: ACHN renal
[9] = test system: OVCAR-4 ovarian
[10] = test system: MDA-MB-231 breast
[11] = test system: MDA-MB-435 melanoma
[12] = test system: UO-31 renal
[13] = test system: SW-620 colon
[14] = test system: OVCAR-8 ovarian
[15] = test system: HS 578T breast
[16] = test system: NCI-H322M lung
[17] = test system: NCI/ADR-RES ovarian
[18] = test system: EKVX NSCLC
[19] = test system: MALME-3M melanoma
[20] = test system: UACC-62 melanoma
[21] = test system: MCF7 breast
[22] = test system: K-562 leukemia
[23] = test system: NCI-H23 lung
[24] = test system: MOLT-4 leukemia
[25] = test system: RPMI-8226 leukemia
[26] = test system: SN12C renal
[27] = test system: DU-145 prostate
[28] = test system: SF-295 CNS
[29] = test system: HCT-15 colon
[30] = test system: SNB-75 CNS
[31] = test system: SK-MEL-5 melanoma
[32] = test system: SF-268 CNS
[33] = test system: OVCAR-3 ovarian
[34] = test system: OVCAR-5 ovarian
[35] = test system: NCI-H460 NSCLC
[36] = test system: SF-539 CNS
[37] = test system: M14 melanoma
[38] = test system: BT-549 breast
[39] = test system: SK-MEL-28 melanoma
[40] = test system: HOP-92 NSCLC
[41] = test system: NCI-H522 lung
[42] = test system: SK-OV-3 ovarian
[43] = test system: IGROV1 ovarian
[44] = test system: 786-0 renal
[45] = test system: KM12 colon
[46] = test system: LOX IMVI melanoma
[47] = test system: CAKI-1 renal
[48] = test system: CCRF-CEM leukemia
[49] = test system: TK-10 renal
[50] = test system: SR leukemia
[51] = test system: HL-60(TB) leukemia
[52] = test system: HOP-62 NSCLC
[53] = test system: RXF 393 renal
[54] = test system: MDA-MB-468 breast
[55] = test system: T-47D breast
[56] = test system: NCI-H226 lung
[57] = test system: A549 NSCLC

Q: With Cc1cccc(N(C)C(=O)[C@@H]2[C@H](O)CCN2c2nc(C)cc(C(F)(F)F)c2C#N)c1 as the molecule, how does the GI50 [1] read?
A: 24.8 µM

Q: And the TGI [1]?
A: 54.4 µM

Q: What about the GI50 [2] of the same molecule?
A: 37.6 µM

Q: And the TGI [2]?
A: > 100 µM

Q: And the GI50 [3]?
A: 24.5 µM

Q: What about the TGI [3] of the same molecule?
A: 65.3 µM

Q: And the GI50 [4]?
A: 28.3 µM

Q: And the TGI [4]?
A: 96.1 µM

Q: And the GI50 [5]?
A: 37.9 µM

Q: What about the TGI [5] of the same molecule?
A: > 100 µM

Q: What about the GI50 [6] of the same molecule?
A: 32.7 µM

Q: And the TGI [6]?
A: > 100 µM

Q: What about the GI50 [7] of the same molecule?
A: 35.3 µM

Q: What about the TGI [7] of the same molecule?
A: 76.6 µM

Q: And the GI50 [8]?
A: 31 µM

Q: What about the TGI [8] of the same molecule?
A: > 100 µM

Q: And the GI50 [9]?
A: 30.4 µM

Q: What about the TGI [9] of the same molecule?
A: 73 µM

Q: What about the GI50 [10] of the same molecule?
A: 47.9 µM

Q: What about the TGI [10] of the same molecule?
A: > 100 µM

Q: And the GI50 [11]?
A: 37.5 µM

Q: What about the TGI [11] of the same molecule?
A: > 100 µM

Q: What about the GI50 [12] of the same molecule?
A: 32.5 µM

Q: What about the TGI [12] of the same molecule?
A: > 100 µM

Q: And the GI50 [13]?
A: 53.3 µM

Q: What about the TGI [13] of the same molecule?
A: > 100 µM

Q: What about the GI50 [14] of the same molecule?
A: 32.9 µM

Q: What about the TGI [14] of the same molecule?
A: > 100 µM

Q: What about the GI50 [15] of the same molecule?
A: 21 µM

Q: And the TGI [15]?
A: 52.3 µM

Q: What about the GI50 [16] of the same molecule?
A: 36.4 µM

Q: And the TGI [16]?
A: > 100 µM

Q: And the GI50 [17]?
A: 23.5 µM

Q: What about the TGI [17] of the same molecule?
A: 63.8 µM

Q: What about the GI50 [18] of the same molecule?
A: 24.4 µM

Q: And the TGI [18]?
A: 58.1 µM

Q: And the GI50 [19]?
A: 22 µM

Q: And the TGI [19]?
A: 66.7 µM

Q: What about the GI50 [20] of the same molecule?
A: 38.1 µM

Q: What about the TGI [20] of the same molecule?
A: > 100 µM

Q: And the GI50 [21]?
A: 27.9 µM

Q: What about the TGI [21] of the same molecule?
A: 71.6 µM

Q: What about the GI50 [22] of the same molecule?
A: 33.1 µM

Q: And the TGI [22]?
A: > 100 µM

Q: What about the GI50 [23] of the same molecule?
A: 34.4 µM

Q: And the TGI [23]?
A: > 100 µM

Q: What about the GI50 [24] of the same molecule?
A: 14.8 µM

Q: And the TGI [24]?
A: 28.2 µM

Q: And the GI50 [25]?
A: 13.6 µM

Q: What about the TGI [25] of the same molecule?
A: 26.7 µM

Q: What about the GI50 [26] of the same molecule?
A: 30.6 µM

Q: What about the TGI [26] of the same molecule?
A: > 100 µM

Q: And the GI50 [27]?
A: 31.3 µM

Q: And the TGI [27]?
A: 90.7 µM

Q: What about the GI50 [28] of the same molecule?
A: 21.4 µM

Q: And the TGI [28]?
A: 52 µM

Q: What about the GI50 [29] of the same molecule?
A: 32 µM

Q: And the TGI [29]?
A: > 100 µM

Q: And the GI50 [30]?
A: 28.4 µM

Q: What about the TGI [30] of the same molecule?
A: 91.2 µM

Q: What about the GI50 [31] of the same molecule?
A: 20.7 µM

Q: And the TGI [31]?
A: 37.3 µM

Q: And the GI50 [32]?
A: 38.9 µM

Q: And the TGI [32]?
A: > 100 µM

Q: And the GI50 [33]?
A: 20.1 µM

Q: And the TGI [33]?
A: 43.5 µM

Q: What about the GI50 [34] of the same molecule?
A: 35.2 µM

Q: And the TGI [34]?
A: > 100 µM

Q: What about the GI50 [35] of the same molecule?
A: 30.2 µM

Q: And the TGI [35]?
A: 87 µM

Q: What about the GI50 [36] of the same molecule?
A: 37.2 µM

Q: What about the TGI [36] of the same molecule?
A: > 100 µM

Q: What about the GI50 [37] of the same molecule?
A: 43.7 µM

Q: What about the TGI [37] of the same molecule?
A: > 100 µM

Q: What about the GI50 [38] of the same molecule?
A: 29.4 µM

Q: And the TGI [38]?
A: 65.4 µM

Q: And the GI50 [39]?
A: 43.3 µM

Q: And the TGI [39]?
A: > 100 µM

Q: What about the GI50 [40] of the same molecule?
A: 22.9 µM

Q: What about the TGI [40] of the same molecule?
A: 61 µM

Q: What about the GI50 [41] of the same molecule?
A: 28.1 µM

Q: What about the TGI [41] of the same molecule?
A: 70 µM

Q: What about the GI50 [42] of the same molecule?
A: 35 µM

Q: What about the TGI [42] of the same molecule?
A: 96.4 µM

Q: And the GI50 [43]?
A: 28 µM

Q: What about the TGI [43] of the same molecule?
A: 71.7 µM

Q: And the GI50 [44]?
A: 33.3 µM

Q: What about the TGI [44] of the same molecule?
A: > 100 µM

Q: And the GI50 [45]?
A: 33.3 µM

Q: What about the TGI [45] of the same molecule?
A: > 100 µM

Q: What about the GI50 [46] of the same molecule?
A: 30.7 µM

Q: What about the TGI [46] of the same molecule?
A: 80.8 µM

Q: And the GI50 [47]?
A: 36.1 µM

Q: And the TGI [47]?
A: > 100 µM

Q: What about the GI50 [48] of the same molecule?
A: 19.4 µM

Q: What about the TGI [48] of the same molecule?
A: 36 µM

Q: What about the GI50 [49] of the same molecule?
A: 51.4 µM

Q: And the TGI [49]?
A: > 100 µM

Q: And the GI50 [50]?
A: 15.9 µM

Q: What about the TGI [50] of the same molecule?
A: 30 µM

Q: And the GI50 [51]?
A: 19.4 µM

Q: What about the TGI [51] of the same molecule?
A: 33.8 µM

Q: And the GI50 [52]?
A: 27.2 µM

Q: And the TGI [52]?
A: 91.7 µM

Q: What about the GI50 [53] of the same molecule?
A: 21.5 µM

Q: And the TGI [53]?
A: 58.6 µM

Q: And the GI50 [54]?
A: 20 µM

Q: And the TGI [54]?
A: 38.5 µM

Q: What about the GI50 [55] of the same molecule?
A: 37 µM

Q: And the TGI [55]?
A: > 100 µM

Q: What about the GI50 [56] of the same molecule?
A: 21 µM

Q: And the TGI [56]?
A: 64.8 µM

Q: What about the GI50 [57] of the same molecule?
A: 26.9 µM

Q: And the TGI [57]?
A: > 100 µM
